This passage reports Kd results from ChEMBL document CHEMBL3991601, “The target landscape of clinical kinase drugs” (Science, 2017).

Calls of active or inactive are those of the source.

The target in assay [1] is T1, Mitogen-activated protein kinase kinase kinase 6 (Homo sapiens, UniProt O95382).
T1 sequence (O95382 whole entry): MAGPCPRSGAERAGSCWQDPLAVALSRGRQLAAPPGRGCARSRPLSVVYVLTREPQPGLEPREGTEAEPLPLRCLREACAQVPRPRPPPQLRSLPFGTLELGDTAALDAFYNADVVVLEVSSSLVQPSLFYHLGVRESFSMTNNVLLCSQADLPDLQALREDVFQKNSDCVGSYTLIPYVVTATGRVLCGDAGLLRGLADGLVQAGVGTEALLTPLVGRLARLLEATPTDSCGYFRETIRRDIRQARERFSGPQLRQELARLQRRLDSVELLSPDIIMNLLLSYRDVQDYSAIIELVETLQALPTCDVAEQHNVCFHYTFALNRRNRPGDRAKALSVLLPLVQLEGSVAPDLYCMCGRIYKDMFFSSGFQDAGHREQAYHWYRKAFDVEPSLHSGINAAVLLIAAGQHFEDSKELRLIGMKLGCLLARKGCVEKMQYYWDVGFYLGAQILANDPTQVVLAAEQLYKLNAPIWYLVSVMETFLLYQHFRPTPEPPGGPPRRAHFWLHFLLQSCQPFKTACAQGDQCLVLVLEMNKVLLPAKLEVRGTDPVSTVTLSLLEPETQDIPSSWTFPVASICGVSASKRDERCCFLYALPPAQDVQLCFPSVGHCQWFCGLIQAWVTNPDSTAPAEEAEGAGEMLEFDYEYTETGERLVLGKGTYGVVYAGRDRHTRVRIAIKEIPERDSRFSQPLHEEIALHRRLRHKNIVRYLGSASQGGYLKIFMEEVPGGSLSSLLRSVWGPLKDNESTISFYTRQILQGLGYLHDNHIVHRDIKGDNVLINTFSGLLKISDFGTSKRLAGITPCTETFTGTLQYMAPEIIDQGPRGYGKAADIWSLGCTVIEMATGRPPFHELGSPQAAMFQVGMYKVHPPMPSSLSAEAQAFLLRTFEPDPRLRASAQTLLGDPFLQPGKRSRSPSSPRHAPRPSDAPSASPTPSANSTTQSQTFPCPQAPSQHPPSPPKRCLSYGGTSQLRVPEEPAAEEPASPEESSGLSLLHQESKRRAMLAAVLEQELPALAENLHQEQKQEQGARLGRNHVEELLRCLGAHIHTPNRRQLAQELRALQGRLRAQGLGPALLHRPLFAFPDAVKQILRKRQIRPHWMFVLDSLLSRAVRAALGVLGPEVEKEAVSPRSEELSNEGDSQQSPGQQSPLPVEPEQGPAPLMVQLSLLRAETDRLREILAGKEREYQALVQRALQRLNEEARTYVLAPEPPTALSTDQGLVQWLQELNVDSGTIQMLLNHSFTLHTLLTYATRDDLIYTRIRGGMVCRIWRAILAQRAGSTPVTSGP

In assay [2] the target is T2, Bone morphogenetic protein receptor type-2 (Homo sapiens, UniProt Q13873).
T2 sequence (Q13873 whole entry): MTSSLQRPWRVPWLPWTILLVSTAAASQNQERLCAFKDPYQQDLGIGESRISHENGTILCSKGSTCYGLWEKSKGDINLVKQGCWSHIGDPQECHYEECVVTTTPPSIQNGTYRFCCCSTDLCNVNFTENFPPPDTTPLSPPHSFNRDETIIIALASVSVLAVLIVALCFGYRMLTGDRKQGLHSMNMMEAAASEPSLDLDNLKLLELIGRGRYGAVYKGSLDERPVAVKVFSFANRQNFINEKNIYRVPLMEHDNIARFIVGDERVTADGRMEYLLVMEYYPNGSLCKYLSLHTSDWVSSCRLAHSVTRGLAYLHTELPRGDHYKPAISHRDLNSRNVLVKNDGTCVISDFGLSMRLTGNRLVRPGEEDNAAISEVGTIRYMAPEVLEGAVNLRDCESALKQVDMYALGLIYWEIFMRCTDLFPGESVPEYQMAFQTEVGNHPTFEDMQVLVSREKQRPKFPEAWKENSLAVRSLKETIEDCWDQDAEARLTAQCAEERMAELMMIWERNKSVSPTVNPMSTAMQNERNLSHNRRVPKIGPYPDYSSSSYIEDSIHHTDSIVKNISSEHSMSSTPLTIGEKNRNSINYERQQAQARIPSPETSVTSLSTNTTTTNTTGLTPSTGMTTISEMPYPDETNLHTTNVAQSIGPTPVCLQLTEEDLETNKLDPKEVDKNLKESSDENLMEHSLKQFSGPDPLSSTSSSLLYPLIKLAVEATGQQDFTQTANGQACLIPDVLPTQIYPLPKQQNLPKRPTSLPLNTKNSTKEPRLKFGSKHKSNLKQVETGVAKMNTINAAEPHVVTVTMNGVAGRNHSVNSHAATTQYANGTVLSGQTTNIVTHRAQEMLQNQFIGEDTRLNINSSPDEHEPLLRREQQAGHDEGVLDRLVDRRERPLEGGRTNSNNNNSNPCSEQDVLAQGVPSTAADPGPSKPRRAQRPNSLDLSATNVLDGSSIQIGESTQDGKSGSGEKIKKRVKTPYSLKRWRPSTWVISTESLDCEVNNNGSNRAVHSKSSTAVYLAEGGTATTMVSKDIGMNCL

In assay [3] the target is DnaJ homolog subfamily A member 1 (Homo sapiens, UniProt P31689).
Assay [4] concerns the target Atypical kinase COQ8A, mitochondrial (Homo sapiens, UniProt Q8NI60).
Assay [5] concerns the target T3, Dual specificity mitogen-activated protein kinase kinase 6 (Homo sapiens, UniProt P52564).
T3 sequence (P52564 whole entry): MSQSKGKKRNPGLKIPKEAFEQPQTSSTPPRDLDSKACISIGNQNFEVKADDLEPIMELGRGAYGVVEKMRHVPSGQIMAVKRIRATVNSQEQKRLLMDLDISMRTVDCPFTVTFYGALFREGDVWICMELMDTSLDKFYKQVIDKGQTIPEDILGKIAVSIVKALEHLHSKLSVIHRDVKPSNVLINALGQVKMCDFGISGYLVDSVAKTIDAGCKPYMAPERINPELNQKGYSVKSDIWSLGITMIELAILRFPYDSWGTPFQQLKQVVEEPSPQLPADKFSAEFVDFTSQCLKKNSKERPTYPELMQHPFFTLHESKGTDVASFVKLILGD

Assay [6] concerns the target Citron Rho-interacting kinase (Homo sapiens, UniProt O14578).
The target of assay [7] is Tyrosine-protein kinase HCK (Homo sapiens, UniProt P08631).
Note: in the data inactive means no Kd found up to 30 µM.

DnaJ homolog subfamily A member 1, sequence (P31689 whole entry): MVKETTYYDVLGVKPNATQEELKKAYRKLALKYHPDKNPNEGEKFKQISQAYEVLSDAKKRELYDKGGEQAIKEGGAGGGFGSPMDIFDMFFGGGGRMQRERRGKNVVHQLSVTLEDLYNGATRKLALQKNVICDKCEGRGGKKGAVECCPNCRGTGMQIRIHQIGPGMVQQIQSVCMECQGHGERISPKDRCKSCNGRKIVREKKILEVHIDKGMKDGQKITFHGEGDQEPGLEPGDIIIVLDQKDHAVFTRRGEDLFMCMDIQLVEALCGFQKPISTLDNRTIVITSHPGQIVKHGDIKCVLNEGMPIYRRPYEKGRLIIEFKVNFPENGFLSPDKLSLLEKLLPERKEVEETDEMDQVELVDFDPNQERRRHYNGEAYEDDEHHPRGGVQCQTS
Citron Rho-interacting kinase, sequence (O14578 whole entry): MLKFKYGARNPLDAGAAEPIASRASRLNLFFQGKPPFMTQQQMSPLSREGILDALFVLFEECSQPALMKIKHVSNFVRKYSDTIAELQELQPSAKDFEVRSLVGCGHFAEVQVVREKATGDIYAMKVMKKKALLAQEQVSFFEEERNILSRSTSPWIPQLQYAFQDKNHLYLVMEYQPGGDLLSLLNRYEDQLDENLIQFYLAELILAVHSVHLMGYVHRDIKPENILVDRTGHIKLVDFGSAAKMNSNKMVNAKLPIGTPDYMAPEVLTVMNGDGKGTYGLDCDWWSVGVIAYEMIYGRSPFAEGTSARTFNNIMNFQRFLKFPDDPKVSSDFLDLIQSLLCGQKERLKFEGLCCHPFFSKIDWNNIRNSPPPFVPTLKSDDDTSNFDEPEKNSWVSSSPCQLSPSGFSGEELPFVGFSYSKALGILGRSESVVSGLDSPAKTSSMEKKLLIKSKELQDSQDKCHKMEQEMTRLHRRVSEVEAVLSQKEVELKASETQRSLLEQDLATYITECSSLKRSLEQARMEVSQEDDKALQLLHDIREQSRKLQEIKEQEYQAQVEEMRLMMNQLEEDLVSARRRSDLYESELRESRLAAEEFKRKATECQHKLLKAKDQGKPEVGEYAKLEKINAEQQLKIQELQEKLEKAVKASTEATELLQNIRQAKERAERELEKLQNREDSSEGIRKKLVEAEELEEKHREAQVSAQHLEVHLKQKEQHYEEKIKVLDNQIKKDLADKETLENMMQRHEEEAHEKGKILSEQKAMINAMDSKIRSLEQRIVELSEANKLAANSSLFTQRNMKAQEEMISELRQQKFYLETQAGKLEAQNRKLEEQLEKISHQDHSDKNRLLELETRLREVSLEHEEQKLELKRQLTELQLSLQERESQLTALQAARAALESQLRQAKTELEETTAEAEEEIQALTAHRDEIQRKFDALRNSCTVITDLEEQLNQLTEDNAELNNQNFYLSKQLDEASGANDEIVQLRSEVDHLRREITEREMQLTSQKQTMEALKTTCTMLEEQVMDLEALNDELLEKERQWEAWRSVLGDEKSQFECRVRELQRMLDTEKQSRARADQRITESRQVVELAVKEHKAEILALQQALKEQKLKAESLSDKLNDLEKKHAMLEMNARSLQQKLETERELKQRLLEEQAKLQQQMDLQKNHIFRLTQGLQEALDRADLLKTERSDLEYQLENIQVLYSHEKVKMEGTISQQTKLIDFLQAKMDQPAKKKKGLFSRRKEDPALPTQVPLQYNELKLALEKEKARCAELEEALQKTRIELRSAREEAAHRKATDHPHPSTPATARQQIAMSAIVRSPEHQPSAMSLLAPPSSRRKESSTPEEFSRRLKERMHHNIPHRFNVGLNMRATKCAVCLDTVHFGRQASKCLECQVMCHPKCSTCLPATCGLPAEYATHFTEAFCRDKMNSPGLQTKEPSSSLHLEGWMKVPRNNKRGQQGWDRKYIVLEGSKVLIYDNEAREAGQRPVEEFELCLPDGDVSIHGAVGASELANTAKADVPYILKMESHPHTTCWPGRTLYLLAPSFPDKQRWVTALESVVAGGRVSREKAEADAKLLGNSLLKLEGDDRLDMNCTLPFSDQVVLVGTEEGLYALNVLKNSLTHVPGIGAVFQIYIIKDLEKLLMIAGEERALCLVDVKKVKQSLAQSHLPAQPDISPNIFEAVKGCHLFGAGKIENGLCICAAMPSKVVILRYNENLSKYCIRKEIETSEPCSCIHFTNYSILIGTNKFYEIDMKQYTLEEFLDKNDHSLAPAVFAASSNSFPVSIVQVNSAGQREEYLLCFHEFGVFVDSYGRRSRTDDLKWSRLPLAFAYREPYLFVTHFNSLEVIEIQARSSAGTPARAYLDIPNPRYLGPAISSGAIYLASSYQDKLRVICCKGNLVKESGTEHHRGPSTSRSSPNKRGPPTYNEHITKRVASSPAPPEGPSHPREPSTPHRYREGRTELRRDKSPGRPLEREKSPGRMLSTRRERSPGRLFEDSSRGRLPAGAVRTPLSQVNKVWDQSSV
Atypical kinase COQ8A, mitochondrial, sequence (Q8NI60 whole entry): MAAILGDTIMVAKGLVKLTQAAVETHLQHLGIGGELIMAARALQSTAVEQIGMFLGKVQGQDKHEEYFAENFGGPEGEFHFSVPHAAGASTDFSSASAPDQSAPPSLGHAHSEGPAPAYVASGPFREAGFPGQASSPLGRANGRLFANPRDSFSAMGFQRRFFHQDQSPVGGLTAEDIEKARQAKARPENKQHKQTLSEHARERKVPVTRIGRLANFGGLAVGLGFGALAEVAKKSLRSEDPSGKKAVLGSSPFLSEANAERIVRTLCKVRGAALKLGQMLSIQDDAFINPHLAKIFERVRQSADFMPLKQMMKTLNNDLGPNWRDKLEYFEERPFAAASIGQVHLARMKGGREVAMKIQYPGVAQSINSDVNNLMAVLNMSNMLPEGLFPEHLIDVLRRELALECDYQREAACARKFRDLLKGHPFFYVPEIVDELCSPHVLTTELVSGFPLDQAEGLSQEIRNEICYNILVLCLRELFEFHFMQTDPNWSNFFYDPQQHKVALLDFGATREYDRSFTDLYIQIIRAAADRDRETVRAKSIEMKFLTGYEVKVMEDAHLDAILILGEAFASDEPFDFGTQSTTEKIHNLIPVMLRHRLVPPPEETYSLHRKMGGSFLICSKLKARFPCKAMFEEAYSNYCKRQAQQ
Tyrosine-protein kinase HCK, sequence (P08631 whole entry): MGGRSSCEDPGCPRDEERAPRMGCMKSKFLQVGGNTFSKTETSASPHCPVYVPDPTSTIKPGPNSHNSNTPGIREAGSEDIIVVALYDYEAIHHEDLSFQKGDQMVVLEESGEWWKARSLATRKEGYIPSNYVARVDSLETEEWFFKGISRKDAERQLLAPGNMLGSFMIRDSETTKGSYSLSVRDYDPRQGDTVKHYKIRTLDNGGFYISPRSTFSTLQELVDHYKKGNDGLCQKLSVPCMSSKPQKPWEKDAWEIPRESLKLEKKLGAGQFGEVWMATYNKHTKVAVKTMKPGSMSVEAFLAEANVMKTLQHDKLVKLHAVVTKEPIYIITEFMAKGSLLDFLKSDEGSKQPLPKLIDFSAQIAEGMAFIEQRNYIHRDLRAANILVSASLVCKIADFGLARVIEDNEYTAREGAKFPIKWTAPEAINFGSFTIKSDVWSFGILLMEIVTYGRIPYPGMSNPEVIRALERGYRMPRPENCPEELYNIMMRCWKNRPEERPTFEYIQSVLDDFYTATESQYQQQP

For `COc1cc2ncnc(Nc3ccc(O)cc3)c2cc1OC` [WHI-P131], the Kd in assay [1], in assay [2], in assay [3], in assay [4], in assay [5] and in assay [6] was > 30 µM (inactive) throughout. In addition, the Kd in assay [7] was > 30 µM (inactive).

Turning to `O=C(Nc1ccc(OC(F)(F)F)cc1)c1sccc1NCc1ccnc2ccccc12` [OSI-930], the Kd in assay [1], in assay [2], in assay [3], in assay [4], in assay [5] and in assay [6] was > 30 µM (inactive) in each case. The Kd in assay [7] is > 30 µM (inactive).

In the case of `CNC(=O)c1ccc(Nc2ncc(C(F)(F)F)c(NCc3nccnc3N(C)S(C)(=O)=O)n2)cc1` [DEFACTINIB], the Kd in assay [1], in assay [2], in assay [3], in assay [4], in assay [5] and in assay [6] was > 30 µM (inactive) in each case. For the same molecule, in assay [7], the Kd was > 30 µM (inactive).

As for `CC[C@@](C)(Nc1ccnc(-c2c[nH]c3ncccc23)n1)C(=O)NCC(F)(F)F` [DECERNOTINIB], the Kd in assay [1], in assay [2], in assay [3], in assay [4], in assay [5] and in assay [6] was > 30 µM (inactive) each time. Besides, in assay [7], the Kd is > 30 µM (inactive).

Take `O=S(=O)(c1cccc2c(O)nccc12)N1CCCNCC1` [HYDROXYFASUDIL]: the Kd in assay [1], in assay [2], in assay [3], in assay [4], in assay [5] and in assay [6] was > 30 µM (inactive) throughout. Also, the Kd in assay [7] is > 30 µM (inactive).

As for `CN1CCN(c2nc(C3=C(c4c[nH]c5ccccc45)C(=O)NC3=O)c3ccccc3n2)CC1` [SOTRASTAURIN], the Kd in assay [1], in assay [2], in assay [3], in assay [4], in assay [5] and in assay [6] was > 30 µM (inactive) each time. For the same molecule, the Kd in assay [7] is > 30 µM (inactive).

For the molecule `CCN1CCN(Cc2ccc(Nc3ncc(F)c(-c4cc(F)c5nc(C)n(C(C)C)c5c4)n3)nc2)CC1` [ABEMACICLIB], the Kd in assay [1] was > 30 µM (inactive); in assay [2] it was > 30 µM (inactive); in assay [3] it was > 30 µM (inactive); in assay [4], > 30 µM (inactive); in assay [5], > 30 µM (inactive); in assay [6], 0.798 µM (active). Besides, the Kd in assay [7] was > 30 µM (inactive).

In the case of `C[C@@H]1COC(Nc2ccc3ncnc(Nc4ccc(OCc5nccs5)c(Cl)c4)c3c2)=N1` [VARLITINIB], the Kd in assay [1], in assay [2], in assay [3], in assay [4], in assay [5] and in assay [6] was > 30 µM (inactive) throughout. In assay [7], the Kd is > 30 µM (inactive).

Regarding `NC(=O)c1ccc(N(C(N)=O)c2c(F)cccc2F)nc1-c1ccc(F)cc1F` [VX-702], the Kd in assay [1], in assay [2], in assay [3], in assay [4], in assay [5] and in assay [6] was > 30 µM (inactive) each time. Further, the Kd in assay [7] is > 30 µM (inactive).

On to `C=CC(=O)Nc1cc(Nc2nccc(-c3cn(C)c4ccccc34)n2)c(OC)cc1N(C)CCN(C)C` [OSIMERTINIB], for which the Kd in assay [1], in assay [2], in assay [3], in assay [4], in assay [5] and in assay [6] was > 30 µM (inactive) each time. Also, the Kd in assay [7] is > 30 µM (inactive).
